Experimental data as given in paper PMC5130624 (International journal for parasitology, 2016).
Where two headings read alike, the source gives them in different places.

Experiments:
[1] = test system: SnCDPK1 in S. neurona cell lysate; assay: Cell lysate thermal shift assay; assay type: binding, Sarcocystis neurona; conditions: BKI 2 µM, 0.5% DMSO, Tm (compound)-Tm (DMSO)
[2] = molecular target: recombinant SnCDPK1; assay: SnCDPK1 kinase activity assay; assay type: biochemical, Sarcocystis neurona; conditions: read-out: SnCDPK1 enzyme IC50; inhibition of phosphorylation activity
[3] = test system: S. neurona strain F9F merozoites; assay: S. neurona parasite growth assay in bovine turbinate cells; assay type: cell-based, Sarcocystis neurona
[4] = test system: TgCDPK1; conditions: read-out: TgCDPK1 enzyme IC50; ref Johnson et al., 2012; cited from earlier work
[5] = test system: hERG; conditions: cited from earlier work
[6] = Oral pharmacokinetics in newborn calves; conditions: unpublished data
[7] = test system: recombinant SnCDPK1; assay: Recombinant SnCDPK1 thermal shift assay; assay type: binding, Sarcocystis neurona; conditions: 20 µM BKI, 5% DMSO; change in Tm vs DMSO control
[8] = molecular target: T1, recombinant TgCDPK1 (Toxoplasma gondii, UniProt Q9BJF5); assay: Recombinant TgCDPK1 thermal shift assay; assay type: binding; conditions: 20 µM BKI, 5% DMSO; change in Tm vs DMSO control
T1 sequence (Q9BJF5 1-507): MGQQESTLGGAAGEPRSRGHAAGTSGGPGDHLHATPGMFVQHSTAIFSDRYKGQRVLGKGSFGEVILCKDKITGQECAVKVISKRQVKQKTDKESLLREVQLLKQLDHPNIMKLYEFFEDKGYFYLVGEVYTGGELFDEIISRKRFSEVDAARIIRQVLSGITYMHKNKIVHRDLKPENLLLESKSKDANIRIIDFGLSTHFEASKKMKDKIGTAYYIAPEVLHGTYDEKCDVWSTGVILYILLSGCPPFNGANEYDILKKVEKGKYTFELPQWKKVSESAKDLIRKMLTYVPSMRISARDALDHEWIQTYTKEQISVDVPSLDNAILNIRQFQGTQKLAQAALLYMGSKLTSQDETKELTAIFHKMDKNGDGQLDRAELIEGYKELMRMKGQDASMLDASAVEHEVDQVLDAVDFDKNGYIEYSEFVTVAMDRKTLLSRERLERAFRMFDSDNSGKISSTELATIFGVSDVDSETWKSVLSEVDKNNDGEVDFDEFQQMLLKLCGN

[9] = bovine, in vivo

| Structure (SMILES) | S. neurona cell CDPK1 Thermal Stability (°C) [1] | IC50 [2] | EC50 ([3]; Sarcocystis neurona, in Bos taurus, 96 h, read-out: S. neurona cell growth EC50) | Effect of time of addition on growth inhibition ([3]; added at parasite inoculation (0 h) versus 2 h p.i., 4 days) | IC50 [4] | hERG inhibition ([5]; ref Ojo et al., 2014a) | Oral pharmacokinetics [6] | Recombinant SnCDPK1 Thermal Shift (°C) at 20 µM [7] | Recombinant TgCDPK1 Thermal Shift (°C) at 20 µM [8] | Oral pharmacokinetics [9] | hERG inhibition ([5]; ref Vidadala et al., 2016) |
| --- | --- | --- | --- | --- | --- | --- | --- | --- | --- | --- | --- |
| CCOc1ccc2cc(-c3nn(CC4CCN(C)CC4)c4ncnc(N)c34)ccc2c1 [compound 1294] | 2.7 °C | < 10 nM | 68 nM | more effective if added at the time of infection rather than 2 h later | […] | has recently been shown to have hERG inhibition | outstanding oral pharmacokinetics |  |  |  |  |
| CCOc1ccc2cc(-c3nn(C(C)(C)C)c(N)c3C(N)=O)cnc2c1 [compound 1517] | 8.0 °C | < 10 nM |  |  |  |  |  | 9.6 °C | 10.5 °C | outstanding oral pharmacokinetics | lack of hERG inhibition |
